Measured values published in US12421243B2, “Pharmaceutically effective compounds inhibiting selectively the myosin 2 isoforms” (PRINTNET KERESKEDELMI ÉS SZOLGÁLTATÓ KFT., priority 2018, dated 2025).

Key:
[1] = biological target: recombinant Dictyostelium miozin (Dictyostelium) (Dictyostelium discoideum, UniProt P08799); test: actomyosin steady state ATPase measurement, Dictyostelium myosin; assay type: biochemical; conditions: for IC50: concentration required for semi-maximal inhibition of ATPase, read-out: IC50 (μM) Dicty; for % inhibition. complete Dicty: maximum value of inhibition of ATPase activity; for inhibition at 5 µM: read-out: % inhibition at 5 μM (or 10 μM if racemate) Dicty; for inhibition at 50 µM: read-out: % inhibition at 50 μM (or 100 μM if racemate) Dicty
Chain of recombinant Dictyostelium miozin (Dictyostelium) (P08799 whole entry): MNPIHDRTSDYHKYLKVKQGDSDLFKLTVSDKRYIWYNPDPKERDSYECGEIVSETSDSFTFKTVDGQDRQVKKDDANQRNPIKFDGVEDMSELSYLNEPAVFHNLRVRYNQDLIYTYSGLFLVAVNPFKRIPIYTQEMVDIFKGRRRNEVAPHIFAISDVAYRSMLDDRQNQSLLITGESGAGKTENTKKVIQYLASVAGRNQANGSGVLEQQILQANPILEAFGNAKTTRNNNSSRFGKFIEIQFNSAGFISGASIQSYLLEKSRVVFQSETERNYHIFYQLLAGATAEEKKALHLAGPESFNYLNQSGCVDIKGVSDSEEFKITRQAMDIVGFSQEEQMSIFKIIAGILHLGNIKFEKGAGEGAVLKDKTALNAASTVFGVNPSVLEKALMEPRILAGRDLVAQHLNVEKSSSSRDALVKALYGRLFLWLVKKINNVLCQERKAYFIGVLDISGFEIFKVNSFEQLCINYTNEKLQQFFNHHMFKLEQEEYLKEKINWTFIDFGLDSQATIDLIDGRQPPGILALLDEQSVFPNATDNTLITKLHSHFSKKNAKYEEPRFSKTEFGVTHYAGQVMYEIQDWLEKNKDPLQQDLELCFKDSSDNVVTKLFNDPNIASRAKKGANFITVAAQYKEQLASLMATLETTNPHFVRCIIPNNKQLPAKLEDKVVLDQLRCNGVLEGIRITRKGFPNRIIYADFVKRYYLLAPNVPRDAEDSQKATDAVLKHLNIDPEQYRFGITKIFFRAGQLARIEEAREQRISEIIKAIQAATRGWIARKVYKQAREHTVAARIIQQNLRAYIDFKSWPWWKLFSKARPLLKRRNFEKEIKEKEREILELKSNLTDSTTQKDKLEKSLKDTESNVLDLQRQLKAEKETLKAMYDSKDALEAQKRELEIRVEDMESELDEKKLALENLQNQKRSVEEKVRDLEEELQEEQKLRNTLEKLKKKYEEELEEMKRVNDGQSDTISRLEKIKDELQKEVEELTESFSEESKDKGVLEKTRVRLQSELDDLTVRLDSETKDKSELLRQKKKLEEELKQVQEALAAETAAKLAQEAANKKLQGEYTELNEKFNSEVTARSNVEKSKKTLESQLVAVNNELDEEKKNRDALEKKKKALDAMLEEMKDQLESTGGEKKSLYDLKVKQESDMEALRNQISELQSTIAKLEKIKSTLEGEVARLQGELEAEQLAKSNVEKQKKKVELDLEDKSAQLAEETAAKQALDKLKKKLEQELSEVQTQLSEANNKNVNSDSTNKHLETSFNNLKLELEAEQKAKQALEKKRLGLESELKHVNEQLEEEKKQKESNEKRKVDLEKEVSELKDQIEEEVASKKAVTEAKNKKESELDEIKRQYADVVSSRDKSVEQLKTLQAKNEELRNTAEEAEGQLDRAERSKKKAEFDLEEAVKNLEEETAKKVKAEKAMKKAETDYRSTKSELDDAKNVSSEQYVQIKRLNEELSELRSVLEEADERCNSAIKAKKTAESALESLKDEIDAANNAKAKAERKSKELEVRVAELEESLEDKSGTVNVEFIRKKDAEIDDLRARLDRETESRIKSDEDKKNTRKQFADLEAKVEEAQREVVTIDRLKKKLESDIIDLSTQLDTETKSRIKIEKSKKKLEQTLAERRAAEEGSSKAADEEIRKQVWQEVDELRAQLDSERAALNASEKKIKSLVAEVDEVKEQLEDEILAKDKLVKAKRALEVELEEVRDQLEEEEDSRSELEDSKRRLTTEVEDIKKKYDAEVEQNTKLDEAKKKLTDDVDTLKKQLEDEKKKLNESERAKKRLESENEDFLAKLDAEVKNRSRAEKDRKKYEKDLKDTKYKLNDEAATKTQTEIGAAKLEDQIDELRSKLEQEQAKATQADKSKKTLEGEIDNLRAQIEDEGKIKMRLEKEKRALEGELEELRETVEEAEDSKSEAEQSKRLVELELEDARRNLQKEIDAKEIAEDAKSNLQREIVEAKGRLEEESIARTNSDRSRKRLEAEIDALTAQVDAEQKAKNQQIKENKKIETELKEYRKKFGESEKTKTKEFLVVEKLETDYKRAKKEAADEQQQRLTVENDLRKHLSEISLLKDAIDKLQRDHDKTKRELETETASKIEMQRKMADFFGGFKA
Excerpt: (§1) […]; (ii) the concentration required for semi-maximal inhibition.

[2] = biological target: recombinant human non-muscle myosin 2 NM2A (Homo sapiens, UniProt P35579); test: actomyosin steady state ATPase measurement, NM2A; assay type: biochemical
Excerpt: as §1

[3] = biological target: recombinant human non-muscle myosin 2 NM2B (Homo sapiens, UniProt P35580); test: actomyosin steady state ATPase measurement, NM2B; assay type: biochemical
Chain of recombinant human non-muscle myosin 2 NM2B (P35580 whole entry): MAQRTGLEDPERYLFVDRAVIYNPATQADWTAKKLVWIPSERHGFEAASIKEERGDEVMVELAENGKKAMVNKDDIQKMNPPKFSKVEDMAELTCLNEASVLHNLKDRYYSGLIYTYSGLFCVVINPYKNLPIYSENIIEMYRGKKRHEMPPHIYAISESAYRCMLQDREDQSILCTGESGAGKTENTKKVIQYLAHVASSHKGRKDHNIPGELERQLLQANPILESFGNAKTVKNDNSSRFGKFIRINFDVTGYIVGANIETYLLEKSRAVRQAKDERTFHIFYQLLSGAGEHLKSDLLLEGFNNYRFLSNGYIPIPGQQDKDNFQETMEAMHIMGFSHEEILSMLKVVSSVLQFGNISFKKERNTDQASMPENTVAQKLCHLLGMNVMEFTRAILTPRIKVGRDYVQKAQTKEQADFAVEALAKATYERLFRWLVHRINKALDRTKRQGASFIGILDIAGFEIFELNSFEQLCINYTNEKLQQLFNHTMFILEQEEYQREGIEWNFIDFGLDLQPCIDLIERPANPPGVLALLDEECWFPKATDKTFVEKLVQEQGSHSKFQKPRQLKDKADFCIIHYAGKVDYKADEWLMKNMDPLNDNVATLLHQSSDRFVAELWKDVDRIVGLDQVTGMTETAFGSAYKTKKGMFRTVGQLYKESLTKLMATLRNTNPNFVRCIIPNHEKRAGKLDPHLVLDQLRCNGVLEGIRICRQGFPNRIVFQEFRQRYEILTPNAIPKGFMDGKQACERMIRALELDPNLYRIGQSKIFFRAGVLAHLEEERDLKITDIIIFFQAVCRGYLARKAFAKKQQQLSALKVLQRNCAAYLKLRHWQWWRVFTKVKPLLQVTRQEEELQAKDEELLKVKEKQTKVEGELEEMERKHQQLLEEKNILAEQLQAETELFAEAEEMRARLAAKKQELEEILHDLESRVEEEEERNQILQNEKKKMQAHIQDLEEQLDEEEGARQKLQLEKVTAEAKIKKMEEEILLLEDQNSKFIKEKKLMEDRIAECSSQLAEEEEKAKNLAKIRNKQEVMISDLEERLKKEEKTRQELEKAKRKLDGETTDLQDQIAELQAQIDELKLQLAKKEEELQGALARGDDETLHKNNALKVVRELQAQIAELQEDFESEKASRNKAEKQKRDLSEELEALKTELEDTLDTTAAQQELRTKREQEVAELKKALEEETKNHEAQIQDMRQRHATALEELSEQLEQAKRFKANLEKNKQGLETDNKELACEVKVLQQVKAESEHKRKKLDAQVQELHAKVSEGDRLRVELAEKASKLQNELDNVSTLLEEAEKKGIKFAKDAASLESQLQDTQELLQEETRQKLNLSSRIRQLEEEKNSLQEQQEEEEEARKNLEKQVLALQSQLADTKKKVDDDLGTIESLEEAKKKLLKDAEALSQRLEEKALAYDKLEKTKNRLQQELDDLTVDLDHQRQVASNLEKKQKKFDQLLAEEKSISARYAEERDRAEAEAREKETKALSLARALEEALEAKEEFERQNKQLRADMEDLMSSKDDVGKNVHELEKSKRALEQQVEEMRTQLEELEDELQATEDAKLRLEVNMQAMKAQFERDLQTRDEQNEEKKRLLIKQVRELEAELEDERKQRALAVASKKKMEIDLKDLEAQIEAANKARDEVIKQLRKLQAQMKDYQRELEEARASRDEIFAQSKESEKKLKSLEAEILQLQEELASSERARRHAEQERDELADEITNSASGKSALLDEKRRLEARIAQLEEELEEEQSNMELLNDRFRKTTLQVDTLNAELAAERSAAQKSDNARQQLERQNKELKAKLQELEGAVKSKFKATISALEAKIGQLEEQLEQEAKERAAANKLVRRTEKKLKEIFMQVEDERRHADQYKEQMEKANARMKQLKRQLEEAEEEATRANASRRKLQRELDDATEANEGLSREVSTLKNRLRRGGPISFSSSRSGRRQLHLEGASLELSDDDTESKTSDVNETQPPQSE
Excerpt: as §1

[4] = biological target: recombinant human non-muscle myosin 2 NM2C (Homo sapiens, UniProt Q7Z406); test: actomyosin steady state ATPase measurement, NM2C; assay type: biochemical; conditions: for IC50: concentration required for semi-maximal inhibition of ATPase; for % inhibition. complete NM2C: maximum value of inhibition of ATPase activity; for inhibition at 5 µM: read-out: % inhibition at 5 μM (or 10 μM if racemate) NM2C, 5 μM (10 μM if racemate); for inhibition at 5 µM / inhibition at 50 µM: ATPase activity; for inhibition at 50 µM: read-out: % inhibition at 50 μM (or 100 μM if racemate) NM2C, 50 μM (100 μM if racemate)
Excerpt: as §1

[5] = biological target: T1, isolated porcine cardiac ventricular myocardium (cardiac) (Sus scrofa, UniProt P79293); test: actomyosin steady state ATPase measurement, cardiac myosin; assay type: biochemical; conditions: for IC50: concentration required for semi-maximal inhibition of ATPase; for % inhibition. complete cardiac: maximum value of inhibition of ATPase activity; for inhibition at 5 µM: read-out: % inhibition at 5 μM (or 10 μM if racemate) cardiac, 5 μM (10 μM if racemate); for inhibition at 5 µM / inhibition at 50 µM: ATPase activity; for inhibition at 50 µM: read-out: % inhibition at 50 μM (or 100 μM if racemate) cardiac, 50 μM (100 μM if racemate)
T1 construct: isolated porcine cardiac ventricular myocardium (cardiac); from tissue; host or cells: porcine cardiac ventricle
Excerpt: as §1

[6] = tested on: isolated rabbit skeletal muscle myosin (skeletal); test: actomyosin steady state ATPase measurement, skeletal muscle myosin; assay type: biochemical; conditions: for % inhibition at 5 μM (or 10 μM if racemate) Skeletal: 5 μM (10 μM if racemate); for % inhibition at 5 μM (or 10 μM if racemate) Skeletal / % inhibition at 50 μM (or 100 μM if racemate) Skeletal: ATPase activity; for % inhibition at 50 μM (or 100 μM if racemate) Skeletal: 50 μM (100 μM if racemate); for IC50: concentration required for semi-maximal inhibition of ATPase; for % inhibition. complete Skeletal: maximum value of inhibition of ATPase activity
Excerpt: as §1

[7] = biological target: isolated smooth muscle myosin (UniProt P10587); assay type: biochemical, chamois; conditions: concentration required for semi-maximal inhibition of ATPase
Excerpt: (ii) the concentration required for semi-maximal inhibition.

[8] = biological target: isolated smooth muscle myosin (UniProt P10587); assay type: biochemical, chamois; conditions: for % inhibition at 5 μM (or 10 μM if racemate) Smooth: 5 μM (10 μM if racemate); for % inhibition at 5 μM (or 10 μM if racemate) Smooth / % inhibition at 50 μM (or 100 μM if racemate) Smooth: ATPase activity; for % inhibition at 50 μM (or 100 μM if racemate) Smooth: 50 μM (100 μM if racemate); for % inhibition. complete Smooth: maximum value of inhibition of ATPase activity
[9] = tested on: M. quadriceps femoris; test: isometric force measurement of live, anesthetized rat M. quadriceps femoris due to electrical stimulation; assay type: in vivo
Experimental: (§2) The maximum isometric force induced by the stimulation was determined after intraperitoneal injection of some of the compounds of the invention. During the measurement, the following parameters of live anesthetized rats were continuously monitored: • a) heart rate • b) blood flow in the neck arteries • c) respiratory frequency • d) blood oxygen saturation ratio Results from live anesthetized rats are summarized in the table below.

[10] = vital parameters of live anesthetized rats monitored during isometric force measurement; assay type: in vivo; conditions: anesthetized rat; for Maximum change of vital parameters (%) blood flow: neck arteries
Experimental: as §2, with “ratio” for “ratio Results from live anesthetized rats are summarized in the table below.”

[11] = concentration required for semi-maximal inhibition of ATPase
[12] = maximum value of inhibition of ATPase activity

Q: For Cc1cc2c(s1)N=C1N(c3ccccc3)CCC1(O)C2=O (stereo not shown) [Compound 198, 9-Hydroxy-5-methyl-12-phenyl-4-thia-2,12-diazatricyclo[7.3.0.0^3,7]dodeca-1,3(7),5-trien-8-one], which IC50 [1] is on record?
A: The IC50 was 5 µM.

Q: And the “% inhibition. complete Dicty” value [1]?
A: The value was 100%.

Q: What about the inhibition at 5 µM [1] of the same compound?
A: The inhibition at 5 µM was 51%.

Q: And the inhibition at 50 µM [1]?
A: The inhibition at 50 µM was 96%.

Q: And the IC50 [2, 11]?
A: The IC50 was 15 µM.

Q: And the “% inhibition. complete NM2A” value [2, 12]?
A: The value was 100%.

Q: And the inhibition at 5 µM ([2]; read-out: % inhibition at 5 μM (or 10 μM if racemate) NM2A, 5 μM (10 μM if racemate), ATPase activity)?
A: Its inhibition at 5 µM is 26%.

Q: And the inhibition at 50 µM ([2]; read-out: % inhibition at 50 μM (or 100 μM if racemate) NM2A, 50 μM (100 μM if racemate), ATPase activity)?
A: The inhibition at 50 µM was 79%.

Q: What about the IC50 [3, 11] of the same compound?
A: Its IC50 is 15.1 µM.

Q: What about the “% inhibition. complete NM2B” value [3, 12] of the same compound?
A: The value was 100%.

Q: What about the inhibition at 5 µM ([3]; read-out: % inhibition at 5 μM (or 10 μM if racemate) NM2B, 5 μM (10 μM if racemate), ATPase activity) of the same compound?
A: Its inhibition at 5 µM is 24%.

Q: And the inhibition at 50 µM ([3]; read-out: % inhibition at 50 μM (or 100 μM if racemate) NM2B, 50 μM (100 μM if racemate), ATPase activity)?
A: The inhibition at 50 µM was 80%.

Q: What about the IC50 [4] of the same compound?
A: Its IC50 is 6.8 µM.

Q: What about the “% inhibition. complete NM2C” value [4] of the same compound?
A: The value was 100%.

Q: And the inhibition at 5 µM [4]?
A: The inhibition at 5 µM was 51%.

Q: What about the inhibition at 50 µM [4] of the same compound?
A: Its inhibition at 50 µM is 84%.

Q: And the IC50 [5]?
A: The IC50 was 4 µM.

Q: And the “Inhibition (%) cardiac” value ([5]; maximum inhibition, compounds in IC50 range 3-6 μM)?
A: Its value is 100%.

Q: What about the “% inhibition. complete cardiac” value [5] of the same compound?
A: The value was 100%.

Q: And the inhibition at 5 µM [5]?
A: The inhibition at 5 µM was 64%.

Q: And the inhibition at 50 µM [5]?
A: Its inhibition at 50 µM is 89%.

Q: And the “% inhibition at 5 μM (or 10 μM if racemate) Skeletal” value [6]?
A: Its value is 90%.

Q: What about the “% inhibition at 50 μM (or 100 μM if racemate) Skeletal” value [6] of the same compound?
A: The value was 99%.

Q: And the IC50 [6]?
A: The IC50 was 1 µM.

Q: What about the “% inhibition. complete Skeletal” value [6] of the same compound?
A: Its value is 100%.

Q: And the IC50 [7]?
A: The IC50 was 7.6 µM.

Q: And the “% inhibition at 5 μM (or 10 μM if racemate) Smooth” value [8]?
A: The value was 44%.

Q: And the “% inhibition at 50 μM (or 100 μM if racemate) Smooth” value [8]?
A: Its value is 88%.

Q: What about the “% inhibition. complete Smooth” value [8] of the same compound?
A: The value was 100%.

Q: For Cc1cc2c(s1)N=C1N(c3ccc(OC(F)(F)F)cc3)CCC1(O)C2=O (stereo not shown) [Compound 223, 9-Hydroxy-5-methyl-12-[4-(trifluoromethoxy)phenyl]-4-thia-2,12-diazatricyclo[7.3.0.0^3,7]dodeca-1,3(7),5-trien-8-one], which IC50 [1] is on record?
A: Its IC50 is 11.1 µM.

Q: And the “% inhibition. complete Dicty” value [1]?
A: Its value is 100%.

Q: And the inhibition at 5 µM [1]?
A: Its inhibition at 5 µM is 21%.

Q: And the inhibition at 50 µM [1]?
A: Its inhibition at 50 µM is 96%.

Q: What about the IC50 [4] of the same compound?
A: Its IC50 is 3 µM.

Q: And the “% inhibition. complete NM2C” value [4]?
A: The value was 88%.

Q: What about the inhibition at 5 µM [4] of the same compound?
A: Its inhibition at 5 µM is 52%.

Q: What about the inhibition at 50 µM [4] of the same compound?
A: Its inhibition at 50 µM is 82%.

Q: What about the IC50 [5] of the same compound?
A: Its IC50 is 2.2 µM.

Q: What about the “% inhibition. complete cardiac” value [5] of the same compound?
A: The value was 98%.

Q: And the inhibition at 5 µM [5]?
A: The inhibition at 5 µM was 68%.

Q: And the inhibition at 50 µM [5]?
A: Its inhibition at 50 µM is 93%.

Q: And the “% inhibition at 5 μM (or 10 μM if racemate) Skeletal” value [6]?
A: The value was 95%.

Q: And the “% inhibition at 50 μM (or 100 μM if racemate) Skeletal” value [6]?
A: The value was 95%.

Q: And the IC50 [6]?
A: The IC50 was 0.012 µM.

Q: And the “% inhibition. complete Skeletal” value [6]?
A: The value was 95%.

Q: What about the IC50 [7] of the same compound?
A: The IC50 was 1.1 µM.

Q: And the “Maximum change in isometric force at rear leg (%)” value ([9]; 0.2 mg i.p.)?
A: The value was 23%.

Q: And the “Maximum change in isometric force at rear leg (%)” value ([9]; 1 mg i.p.)?
A: Its value is 25%.

Q: And the “Maximum change of vital parameters (%) heart rate” value ([10]; 0.2 mg i.p.)?
A: The value was 5%.

Q: And the “Maximum change of vital parameters (%) oxygen saturation” value ([10]; 0.2 mg i.p.)?
A: The value was −10%.

Q: What about the “Maximum change of vital parameters (%) respiratory frequency” value ([10]; 0.2 mg i.p.) of the same compound?
A: Its value is −13%.

Q: What about the “Maximum change of vital parameters (%) blood flow” value ([10]; 0.2 mg i.p.) of the same compound?
A: Its value is 8%.

Q: What about the “Maximum change of vital parameters (%) heart rate” value ([10]; 1 mg i.p.) of the same compound?
A: The value was 19%.

Q: What about the “Maximum change of vital parameters (%) oxygen saturation” value ([10]; 1 mg i.p.) of the same compound?
A: The value was −7%.

Q: And the “Maximum change of vital parameters (%) respiratory frequency” value ([10]; 1 mg i.p.)?
A: The value was −22%.

Q: What about the “Maximum change of vital parameters (%) blood flow” value ([10]; 1 mg i.p.) of the same compound?
A: Its value is 25%.

Q: And the “% inhibition at 5 μM (or 10 μM if racemate) Smooth” value [8]?
A: Its value is 79%.

Q: And the “% inhibition at 50 μM (or 100 μM if racemate) Smooth” value [8]?
A: The value was 99%.

Q: What about the “% inhibition. complete Smooth” value [8] of the same compound?
A: Its value is 100%.

Q: Which results are given for O=C1c2ccncc2N=C2N(c3ccc(OC(F)(F)F)cc3)CCC12O (stereo not shown) [Compound 238, 3a-Hydroxy-1-[4-(trifluoromethoxy)phenyl]-1H,2H,3H,3aH,4H-pyrrolo[2,3-b]1,7-naphthyridin-4-one]?
A: IC50 [1]: 3.5 µM; Inhibition (%) Dicty ([1]; maximum inhibition, compounds in IC50 range 1-11 μM): 41%; % inhibition. complete Dicty [1]: 41%; inhibition at 5 µM [1]: 24%; inhibition at 50 µM [1]: 38%; IC50 [4]: 2.1 µM; % inhibition. complete NM2C [4]: 40%; inhibition at 5 µM [4]: 27%; inhibition at 50 µM [4]: 38%; IC50 [5]: 59 µM; % inhibition. complete cardiac [5]: 100%; inhibition at 5 µM [5]: 2%; inhibition at 50 µM [5]: 47%; % inhibition at 5 μM (or 10 μM if racemate) Skeletal [6]: 80%; % inhibition at 50 μM (or 100 μM if racemate) Skeletal [6]: 93%; IC50 [6]: 0.95 µM; % inhibition. complete Skeletal [6]: 96%; IC50 [7]: 6.3 µM; Maximum change in isometric force at rear leg (%) ([9]; 6 mg i.p.): 40%; Maximum change of vital parameters (%) heart rate ([10]; 6 mg i.p.): 3%; Maximum change of vital parameters (%) oxygen saturation ([10]; 6 mg i.p.): −12%; Maximum change of vital parameters (%) respiratory frequency ([10]; 6 mg i.p.): −18%; Maximum change of vital parameters (%) blood flow ([10]; 6 mg i.p.): −10%; % inhibition at 5 μM (or 10 μM if racemate) Smooth [8]: 13%; % inhibition at 50 μM (or 100 μM if racemate) Smooth [8]: 28%; % inhibition. complete Smooth [8]: 31%
